According to US8415497B2, “N-halogenated amino compounds and derivatives” (Novabay Pharmaceuticals, Inc., priority 2006, dated 2013):
Marks after values point to notes of the source that are not given here.

Legend:
Assay type in all cases: cell-based
[1] = tested on: Staphylococcus aureus (MCC 91731); assay: Antimicrobial activity, minimum biocidal concentration; settings: S. aureus MCC 91731 (*), 1 h
Procedure: (§1) To determine antimicrobial activity, we use Escherichia coli (ATCC 25922), Staphylococcus aureus (ATCC 29213), Pseudomonas aeruginosa (ATCC 27853), and Candida albicans (ATCC 10231) in primary screening. In addition, we use Staphylococcus aureus (MCC 91731), Pseudomonas aeruginosa (MCC 4438), and Candida albicans (MCC 50319), provided by Alcon Laboratories, Fort Worth, Tex. The microbial cultures are diluted in sterile saline pH 4 to prepare inocula. […] Bacterial plating on Petri dishes (Tryptic Soy agar or Saboraud's Dextrose agar) is performed immediately after the designated exposure after neutralization of the test article dilutions in Dey-Engley Broth. Plates are incubated at 37° C., and the numbers of bacteria are counted by direct colony count to quantitate the surviving bacteria as CFU/mL. Positive growth controls are made with sterile 0.9% saline. All compounds are tested three times. The results are tabulated to show the comparison of antimicrobial effectiveness range of the compounds.

[2] = tested on: Candida albicans (MCC 50319); assay: as above; settings: C. albicans MCC 50319 (+), 1 h
Procedure: as §1, with “The microbial cultures are diluted in sterile saline pH 4 to prepare inocula.” left out

[3] = tested on: Pseudomonas aeruginosa (MCC 4438); assay: as above; settings: P. aeruginosa MCC 4438 (#), 1 h
Procedure: as §1, with “The microbial cultures are diluted in sterile saline pH 4 to prepare inocula.” left out

[4] = tested on: mouse fibroblast cells (ATCC CCL-1, L929); assay: Cytotoxicity, WST-8 colorimetric assay; settings: 60 min exposure
Procedure: Cytotoxicity is assessed by a colorimetric assay system using the Dojindo™ cell counting kit containing 2-(2-methoxy-4-nitrophenyl)-3-(4-nitrophenyl)—S—(2,4-disulfophenyl)-2H-tetrazolium, monosodium salt (WST-8). In this assay, the WST-8 reagent is bioreduced by cellular dehydrogenases to a formazan product that is highly soluble in tissue culture medium. The orange formazan, which is produced only by live cells, is a direct measure of cell viability and can be read spectrophotometrically (for example, evaluation of a soluble tetrazolium/formazan assay for cell growth and drug sensitivity in culture using human and other tumor cell lines is described by Scudiero D A, Shoemaker R A H, Paul K D, Monks A, Tierney S, Nofziger T H, Currens M J, Seniff D, Boyd M R. Cancer Res. 1988 Sep. 1; 48(17):4827-33). Similar approaches for determining the cell viability are known in the art.
In a standard assay, mouse fibroblast cells (ATCC CCL-1, L929), are cultured in Minimum Essential Medium, α-medium supplemented with 10% heat inactivated fetal bovine serum, L-glutamine, penicillin and streptomycin. Cells are trypsinized and counted under the microscope and seeded at 1.5×10^4 total cells per 100 μL per well of a flat-bottom 96-well plate in order to achieve ˜80% confluence after overnight incubation at 37° C. On the day of the assay, the tissue culture medium is removed and replaced with 30 μL of fresh medium.
Test articles are prepared as 2-fold serial dilutions and 170 μL, of each dilution is added into each of 4-wells (total volume per well=200 μL). The test plate is then returned to the 37° C. incubator for 60 min. Immediately after the exposed time, test article from each well is replaced with 200 μL of fresh media. Plates are incubated at 37° C. for 18-20 hours. The following day growth medium is replaced with 100 μL/well of fresh medium containing 10/100 μL WST-8 reagent. Cells are incubated under growth conditions (5% CO2 at 37° C. humidified incubator), protected from light, until color development is achieved (usually 1-4 hours). Absorbance is read at 450 nm with reference wavelength at 750 nm using Molecular Device SpectraMax M5 plate reader. Untreated or vehicle only treated cells receiving WST-8 reagent serve as positive cell proliferation controls.
The CT50 value for each compound was calculated from the absorbance values (A450-750) and is defined as the concentration of test article that results in survival of 50% of the cells following treatment. The absorbance A450-750 from each well of untreated cells and from each well within the dilution series was measured. To calculate the CT50 for each compound, all compound concentrations were first log-transformed using GraphPad Prism4 (ver 4.03) software. Next, a non-linear regression (curve fit) analysis was performed on all the absorbance data measured from the dilution series, including the absorbance data obtained from wells of the untreated control cells. For each dilution within the dilution series, an average A450-750 was calculated from the four replicate wells. The average A450-750 data were plotted on a y-axis against the log-transformed compound concentration on the x-axis, and the CT50 value calculated from the resulting best-fit curve.

[5] = tested on: Escherichia coli (ATCC 25922); assay: Antimicrobial activity, minimum bactericidal/biocidal concentration; settings: E. coli 25922, pH 4 (Sal), 1 h
Procedure: (§2) To determine antimicrobial activity, we use Escherichia coli (ATCC 25922), Staphylococcus aureus (ATCC 29213), Pseudomonas aeruginosa (ATCC 27853), and Candida albicans (ATCC 10231) in primary screening. In addition, we use Staphylococcus aureus (MCC 91731), Pseudomonas aeruginosa (MCC 4438), and Candida albicans (MCC 50319), provided by Alcon Laboratories, Fort Worth, Tex. The microbial cultures are diluted in sterile saline pH 4 to prepare inocula. Test compounds are titrated by stepwise two-fold dilutions in sterile saline pH 4, 1.0×10^5 to 1.0×10^6 Colony Forming Units (CFU)/mL bacteriamicrobe is added to each tube, mixed by gentle vortexing, and then incubated at room temperature for 1 h. Bacterial plating on Petri dishes (Tryptic Soy agar or Saboraud's Dextrose agar) is performed immediately after the designated exposure after neutralization of the test article dilutions in Dey-Engley Broth. Plates are incubated at 37° C., and the numbers of bacteria are counted by direct colony count to quantitate the surviving bacteria as CFU/mL. Positive growth controls are made with sterile 0.9% saline. All compounds are tested three times. The results are tabulated to show the comparison of antimicrobial effectiveness range of the compounds.

[6] = tested on: Staphylococcus aureus (ATCC 29213); assay: as above; settings: S. aureus 29213, pH 4 (Sal), 1 h
Procedure: as §2

[7] = tested on: Candida albicans (ATCC 10231); assay: Antimicrobial activity, minimum biocidal concentration; settings: C. albicans 10231, pH 4 (Sal), 1 h
Procedure: as §2

[8] = Concentration dependence of antimicrobial activity; settings: 0.9% saline at pH 3.5
Description: (§3) The results of our discovery provide support for antimicrobial activity of 3-(4-chlorophenyl)-2-(dichloroamino)-2-methylpropane-1-sulfonic acid in 0.9% saline at pH 3.5. […] In contrast, cell toxicity is seen at a 1000-fold higher range in the mM range.

cells = assay: Cell toxicity, XTT assay
Description: as §3

CC(C)(COC(=O)CCS(=O)(=O)O)N(Cl)Cl [Compound 614, 3-(2-(Dichloroamino)-2-methylpropoxy)-3-oxopropane-1-sulfonic acid]
Minimum Biocidal Concentration (MBC) (≧99.9% kill) ([1]; pH 4 (Sal)): 1* μg/mL | Minimum Biocidal Concentration (MBC) (≧99.9% kill) ([1]; pH 7 (PBS)): 128* μg/mL | Minimum Biocidal Concentration (MBC) (≧99.9% kill) ([2]; pH 4 (Sal)): 4+ μg/mL | Minimum Biocidal Concentration (MBC) (≧99.9% kill) ([2]; pH 7 (PBS)): 512+ μg/mL | Minimum Biocidal Concentration (MBC) (≧99.9% kill) ([3]; pH 4 (Sal)): 4# μg/mL | Minimum Biocidal Concentration (MBC) (≧99.9% kill) ([3]; pH 7 (PBS)): 256# μg/mL | CT50 (concentration that results in survival of 50% of the cells) ([4]; pH 4 (Sal)): 0.43 mM | CT50 (concentration that results in survival of 50% of the cells) ([4]; pH 7 (PBS)): 4.6 mM

CC(C)(CS(=O)(=O)O)C(=O)OCC(C)(C)N(Cl)Cl [Compound 625, 3-(2-(Dichloroamino)-2-methylpropoxy)-2,2-dimethyl-3-oxopropane-1-sulfonic acid]
Minimum Biocidal Concentration (MBC) (≧99.9% kill) [5]: 4 µg/mL | Minimum Biocidal Concentration (MBC) (≧99.9% kill) [6]: 8 µg/mL | Minimum Biocidal Concentration (MBC) (≧99.9% kill) [7]: 16 µg/mL | CT50 (concentration that results in survival of 50% of the cells) ([4]; pH 4 (Sal)): 2.6 mM

CC(C)(CS(=O)(=O)CCS(=O)(=O)O)N(Cl)Cl [Compound 630, 2-(2-(Dichloroamino)-2-methylpropylsulfonyl)ethanesulfonic acid]
Minimum Biocidal Concentration (MBC) (≧99.9% kill) [5]: 4 µg/mL | Minimum Biocidal Concentration (MBC) (≧99.9% kill) [6]: 8 µg/mL | Minimum Biocidal Concentration (MBC) (≧99.9% kill) [7]: 64 µg/mL

O=S(=O)(O)CC1(N(Cl)Cl)CCCCCC1 [Compound 601, (1-(Dichloroamino)cycloheptyl)methanesulfonic acid]
Minimum Biocidal Concentration (MBC) (≧99.9% kill) ([1]; pH 4 (Sal)): 0.25* μg/mL | Minimum Biocidal Concentration (MBC) (≧99.9% kill) ([3]; pH 4 (Sal)): 0.5# μg/mL

CC(Cc1ccc(Cl)cc1)(CS(=O)(=O)O)N(Cl)Cl (stereo not shown) [Compound 570, 3-(4-chlorophenyl)-2-(dichloroamino)-2-methylpropane-1-sulfonic acid]
antimicrobial activity [8]: considerable in a μM range | cell toxicity range relative to antimicrobial range (cells): 1000 fold | tolerance of treatment, cell proliferation versus untreated control cells (cells; XTT assay): able to tolerate the treatment and be able to go through normal cell proliferation cycles

CNS(=O)(=O)CC(C)(C)N(Cl)Cl [Compound 626, 2-(Dichloroamino)-N,2-dimethylpropane-1-sulfonamide]
Minimum Biocidal Concentration (MBC) (≧99.9% kill) [5]: 4 µg/mL | Minimum Biocidal Concentration (MBC) (≧99.9% kill) [6]: 0.5 µg/mL | Minimum Biocidal Concentration (MBC) (≧99.9% kill) [7]: 8 µg/mL

CC(=O)N1CCC(CS(=O)(=O)O)(N(Cl)Cl)CC1 [Compound 637, (1-Acetyl-4-(dichloroamino)piperidin-4-yl)methanesulfonic acid]
Minimum Biocidal Concentration (MBC) (≧99.9% kill) [5]: 16 µg/mL | Minimum Biocidal Concentration (MBC) (≧99.9% kill) [6]: 4 µg/mL | Minimum Biocidal Concentration (MBC) (≧99.9% kill) [7]: 128 µg/mL

CC(=O)NS(=O)(=O)CC(C)(C)N(Cl)Cl [Compound 627, N-(2-(Dichloroamino)-2-methylpropylsulfonyl)acetamide]
Minimum Biocidal Concentration (MBC) (≧99.9% kill) [5]: 2 µg/mL | Minimum Biocidal Concentration (MBC) (≧99.9% kill) [6]: 1 µg/mL | Minimum Biocidal Concentration (MBC) (≧99.9% kill) [7]: 64 µg/mL

CC1(N(Cl)Cl)CCCCC1S(=O)(=O)O (stereo not shown) [Compound 611, 2-(Dichloroamino)-2-methylcyclohexane-1-sulfonic acid]
Minimum Biocidal Concentration (MBC) (≧99.9% kill) ([1]; pH 4 (Sal)): 1* μg/mL | Minimum Biocidal Concentration (MBC) (≧99.9% kill) ([1]; pH 7 (PBS)): 64* μg/mL | Minimum Biocidal Concentration (MBC) (≧99.9% kill) ([2]; pH 4 (Sal)): 0.5+ μg/mL | Minimum Biocidal Concentration (MBC) (≧99.9% kill) ([2]; pH 7 (PBS)): 64+ μg/mL | Minimum Biocidal Concentration (MBC) (≧99.9% kill) ([3]; pH 4 (Sal)): 1# μg/mL | Minimum Biocidal Concentration (MBC) (≧99.9% kill) ([3]; pH 7 (PBS)): 32# μg/mL | CT50 (concentration that results in survival of 50% of the cells) ([4]; pH 4 (Sal)): 0.25 mM | CT50 (concentration that results in survival of 50% of the cells) ([4]; pH 7 (PBS)): 4.6 mM

CC(C)(CC(=O)OCCS(=O)(=O)O)N(Cl)Cl [Compound 628, 2-(3-(Dichloroamino)-3-methylbutanoyloxy)ethanesulfonic acid]
Minimum Biocidal Concentration (MBC) (≧99.9% kill) [5]: 2 µg/mL | Minimum Biocidal Concentration (MBC) (≧99.9% kill) [6]: 2 µg/mL | Minimum Biocidal Concentration (MBC) (≧99.9% kill) [7]: 64 µg/mL
